The values below come from PMC6913127, “Structures of MERS1, the 5′ processing enzyme of mitochondrial mRNAs in Trypanosoma brucei” (RNA, 2020).

Data set [1] relates to T. brucei MERS1 (residues 37–395). Briefly: Fluorescence polarization (FP) RNA/DNA binding to MERS1. Set-up: species or system Trypanosoma brucei. The settings on record: 25 mM Tris HCl pH 7.5, 5% (v/v) glycerol, 50 mM NaCl; for Binding to MERS1, result in words: 25°C, 1 nM fluoresceinated RNA or DNA. The source says:
We next used FP binding studies to assess RNA binding by purified MERS1. […] We next probed the importance of specific nucleotides in the RNA binding site by performing FP studies on mutant forms of the RNA site.
For structural studies, the nucleotides encoding residues 37–395 of MERS1 were cloned into pET15b between the BamHI and NdeI restriction sites. E. coli C41(DE3) cells were transformed with the expression plasmid and protein expression was induced by addition of isopropyl β-D-1-thiogalactopyranoside (IPTG) to a final concentration of 0.5 mM for 4 h at 37°C when the cells had reached an A600 of 0.4–0.6. The cells were reconstituted in 25 mM Tris HCl pH 7.5, 300 mM NaCl, 5% glycerol, 0.5 mM β-mercaptoethanol and lysed with a microfluidizer. The expressed MERS1 protein was found in the soluble fraction and was purified using nickel-nitrilotriacetic acid (Ni-NTA) column chromatography. The protein was further purified by Superdex 75 size exclusion column (SEC) chromatography. MERS1 mutants were made using the Quikchange mutagenesis protocol and expressed and purified as per the WT protein.
FP experiments were performed using a PanVera Beacon 2000 FP system at 25°C ([Lundblad et al. 1996]). For the experiments, purified proteins were titrated into 0.990 mL buffer composed of 25 mM Tris HCl pH 7.5, 5% (v/v) glycerol and 50 mM NaCl and containing 1 nM (final concentration) fluoresceintly labeled RNA substrate, 5′-GAGAGGGGGUU-3′, or DNA, 5′-GTGAGTACTCAC-3′. Data were fit using KaleidaGraph. Each binding curve is a representative curve from two to three technical replicates. Mutant RNA sites tested were 5′-AAGAGGGGGUU-3′ (Supplemental Fig. S2), 5′-GGGAGGGGGUU-3′, 5′-GAAAGGGGGUU-3′, 5′-GAGGGGGGGUU-3′, 5′-GAGAAGGGGUU-3′, 5-GAGAGAGGGUU-3′, 5′-GAGAGGAGGUU-3′ and 5′-GAGAGGGAGUU-3′.

The test system is the same in data set [2]. Briefly: FP peptide binding to MERS1. The settings on record: 25 mM Tris HCl pH 7.5, 5% (v/v) glycerol, 150 mM NaCl, 1 nM fluoresceinated peptide (Fig. 4B). Set-up: species or system Trypanosoma brucei. The source says:
We considered that the bound helix provided from crystal packing might mimic a portion of MERS2 or MERS3 that interacts with MERS1. Thus, using the MERS1-peptide contacts we derived a consensus MERS1-peptide interacting motif, (M/L)XXALXXEL and probed the MERS2 and MERS3 sequences for similar motifs. While no homology was found between the sequence and that of MERS3, one strong match for the motif was located within the central PPR motif region of MERS2 (residues 394–402). This region is predicted to be helical and contain a PPR motif in MERS2. Attempts to purify MERS2 or a MERS2 truncation containing this PPR motif for binding analyses, however, were unsuccessful. Thus, we obtained a fluoresceinated peptide encompassing this MERS2 region, F-[…] (where underlined residues correspond to the peptide consensus residues) and utilized this peptide in FP binding studies. […] However, to test whether helical residues observed in the crystal to make contact to MERS1 are involved in binding, we obtained a fluoresceintated peptide in which the first leucine and the glutamic acid in the helix were substituted to prolines (F-[…]).
For structural studies, the nucleotides encoding residues 37–395 of MERS1 were cloned into pET15b between the BamHI and NdeI restriction sites. […]

In data set [3] the target is T1, MERS1 (Trypanosoma brucei brucei TREU927, UniProt B6SBM0 37-395).
T1 sequence: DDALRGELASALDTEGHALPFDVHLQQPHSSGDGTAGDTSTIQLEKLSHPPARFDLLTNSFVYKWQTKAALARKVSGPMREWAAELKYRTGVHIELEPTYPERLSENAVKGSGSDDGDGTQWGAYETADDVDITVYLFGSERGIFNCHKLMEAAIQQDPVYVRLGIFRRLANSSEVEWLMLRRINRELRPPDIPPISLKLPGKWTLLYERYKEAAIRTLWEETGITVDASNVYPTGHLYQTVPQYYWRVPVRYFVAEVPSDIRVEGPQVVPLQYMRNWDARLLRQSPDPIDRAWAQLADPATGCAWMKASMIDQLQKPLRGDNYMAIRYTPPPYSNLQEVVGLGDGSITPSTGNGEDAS
Briefly: X-ray crystallography; 2.60 A; four nucleotides resolved per subunit; FP: 25 mM Tris HCl pH 7.5, 50 mM NaCl, 5% (v/v) glycerol, 1 nM labeled RNA or DNA, 25 C. The following applies: protein: recombinant; tags: N-terminal His tag (pET15b, linker LVPRGSM); single-stranded.

Data set [4] concerns the target T1, MERS1. Briefly: fluorescence polarization; FP: 25 mM Tris HCl pH 7.5, 50 mM NaCl, 5% (v/v) glycerol, 1 nM labeled RNA or DNA, 25 C. The settings on record: protein: recombinant, tags: N-terminal His tag (pET15b, linker LVPRGSM); for Kd: single-stranded. For orientation: Fluorescence polarisation rises when a labelled molecule tumbles more slowly, as on binding a larger partner.

For data set [5], the target named is T1, MERS1. Briefly: fluorescence polarization; Results text prints the 12-mer; Methods and Fig. 5 print this 11-mer; FP: 25 mM Tris HCl pH 7.5, 50 mM NaCl, 5% (v/v) glycerol, 1 nM labeled RNA or DNA, 25 C. The following applies: protein: recombinant; tags: N-terminal His tag (pET15b, linker LVPRGSM); single-stranded.
The target in data set [6] is T2, T. brucei MERS1(37–395), his-tagged (Trypanosoma brucei brucei TREU927, UniProt B6SBM0 37-395).
T2 construct: MERS1, Trypanosoma brucei, 395 residues; A selenomethionine-substituted form was used for phasing of the GTP crystal; also called mitochondrial edited mRNA stability factor 1; WT MERS1; source: E. coli C41(DE3), pET15b, purified (Ni-NTA, Superdex 75 SEC); not shown: His tag, N-terminal, kept
T2 sequence: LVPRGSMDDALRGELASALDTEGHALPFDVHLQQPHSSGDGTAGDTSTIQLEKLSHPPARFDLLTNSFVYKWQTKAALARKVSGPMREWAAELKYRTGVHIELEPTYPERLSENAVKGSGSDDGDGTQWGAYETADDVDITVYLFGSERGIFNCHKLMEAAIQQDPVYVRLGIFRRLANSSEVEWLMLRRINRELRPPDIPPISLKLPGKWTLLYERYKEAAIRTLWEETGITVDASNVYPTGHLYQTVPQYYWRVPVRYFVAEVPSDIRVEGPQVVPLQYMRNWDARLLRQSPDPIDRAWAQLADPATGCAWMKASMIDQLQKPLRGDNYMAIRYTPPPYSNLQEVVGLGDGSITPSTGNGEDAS
Briefly: fluorescence polarisation; purified MERS1 titrated into 1 nM fluoresceinated peptide; 25 mM Tris HCl pH 7.5, 5% (v/v) glycerol, 150 mM NaCl. The following applies: both partners purified.

Usually Kd stands for the concentration at which binding is half-saturated.

No end group written: not given here.

On to “5′-GAGAGGGGGUU-3′: fluoresceintly labeled RNA substrate (RNA, backbone not given here; fluorescein label)”, for which the “Binding to MERS1, result in words” value in data set [1] is listed as “binds MERS1 with high affinity”.

Regarding “5′-GAGAGAGGGUU-3′ (RNA, backbone not given here)”, the “Binding to MERS1, result in words” value in data set [1] is recorded as “did not bind saturably”.

On to “5′-GAGAGGAGGUU-3′ (RNA, backbone not given here)”, for which the “Binding to MERS1, result in words” value in data set [1] is “did not bind saturably”.

With “5′-GAGAGGGGGGUU-3′: RNA binding site; also used for the MERS1–RNA crystal structure (RNA, backbone not given here)”, in data set [1] (PanVera Beacon 2000, 25°C, 1 nM fluoresceinated RNA, MERS1 titrated, ± standard error, representative of at least three technical replicates (Fig. 5B)), the dissociation constant Kd was determined as 40 ± 0.9 nM.

Take “F-MSNNALDRLINKQKPKVPPRNDVVSESVSN [another fluoresceinated peptide that lacked the consensus residues, reference compound]”: in data set [2], the “Peptide binding to MERS1, result in words” value is recorded as “failed to interact”.

On to “F-SVSKQAVCLMERHLRRVPGARRNELKVAPSKPLKER [peptide in which the first leucine and the glutamic acid in the helix were substituted to prolines]”, for which the “Peptide binding to MERS1, result in words” value in data set [2] is “only weak binding”.

With “5′-GTGAGTACTCAC-3′: DNA site used as comparison in FP binding (DNA, backbone and methylation of C not given here; further chemistry not fully specified) [reference compound]”, the “Binding to MERS1, result in words” value was “essentially no binding” in data set [1] and “no binding” in data set [1] (listed as DNA).

For “5′-GAGAGGGAGUU-3′ (RNA, backbone not given here)”, in data set [1], the “Binding to MERS1, result in words” value is on record as “did not bind saturably”.

B1: RNA 12-mer (crystal) (ssRNA)
RNA: GAGAGGGGGGUU
Turning to B1, in data set [3], the binding result is listed as “binds”.

B2: RNA G3A (ssRNA)
RNA: GAAAGGGGGUU
Turning to B2, the Kd in data set [4] (label: fluorescein) was 78 ± 4 nM.

B3: WT RNA site (11-mer, FP) (ssRNA)
RNA: GAGAGGGGGUU
For the molecule B3, in data set [5], the equilibrium dissociation constant (Kd) was 40 ± 0.9 nM.

B4: RNA A2G (ssRNA)
RNA: GGGAGGGGGUU
As for B4, the Kd in data set [4] (label: fluorescein) was determined as 48 ± 0.9 nM.

B5: fluoresceinated MERS2 peptide F-SVSKQAVCLMERHLRRVPGARRNELKVALSKELKER (peptide)
peptide: fluorescein-SVSKQAVCLMERHLRRVPGARRNELKVALSKELKER
notes: MERS2, T. brucei, 946 residue pentatricopeptide repeat protein; limits worked out from that motif; also called MER2 peptide
For the molecule B5, the Kd in data set [6] came to 2500 nM.

B6: RNA G1A (ssRNA)
RNA: AAGAGGGGGUU
As for B6, the Kd in data set [4] (label: 5' fluorescein) amounted to 39 ± 4 nM.

B7: RNA A4G (ssRNA)
RNA: GAGGGGGGGUU
Take B7: the Kd in data set [4] (label: fluorescein) is 47 ± 5 nM.

B8: DNA control (dsDNA)
DNA 1: GTGAGTACTCAC
DNA 2: GTGAGTACTCAC
Regarding B8, the binding result in data set [4] (label: fluorescein, self-complementary 12-mer, blunt if duplex) was “no binding”.

B9: RNA G5A (ssRNA)
RNA: GAGAAGGGGUU
On to B9, for which, in data set [4] (label: fluorescein), the dissociation constant (Kd) is 43 ± 5 nM.
